pEC50: −log10 of the molar value.

For the assay, the system named is NL-RLuc virus. The experiment in a line: Inhibition of HIV Replication (NL-RLuc luciferase reporter virus in MT-2 cells). The class given is cell-based. To be noted: Human immunodeficiency virus 1, MT2, 120 h. From the text:
Inhibition of HIV Replication:
A recombinant NL-RLuc proviral clone was constructed in which a section of the nef gene from NL4-3 was replaced with the Renilla Luciferase gene. This virus is fully infectious and can undergo multiple cycles of replication in cell culture. In addition, the luciferous reporter provides a simple and easy method for quantitating the extent of virus growth and consequently, the antiviral activity of test compounds. The plasmid pNLRLuc contains the proviral NL-Rluc DNA cloned into pUC18 at the PvuII site. The NL-RLuc virus was prepared by transfection of 293T cells with the plasmid pNLRLuc. Transfections were performed using the LipofectAMINE PLUS kit from Invitrogen (Carlsbad, Calif.) according to the manufacturer and the virus generated was titered in MT-2 cells. For susceptibility analyses, the titrated virus was used to infect MT-2 cells in the presence of compound, and after 5 days of incubation, cells were processed and quantitated for virus growth by the amount of expressed luciferase. Assay media was RPMI 1640 supplemented with 10% heat inactivated fetal bovine serum (FBS), 100 units/ml penicillin G/100 units/ml streptomycin, 10 mM HEPES buffer pH 7.55 and 2 mM L-glutamine. The results from at least 2 experiments were used to calculate the EC50 values. Luciferase was quantitated using the Dual Luciferase kit from Promega (Madison, Wis.). Susceptibility of viruses to compounds was determined by incubation in the presence of serial dilutions of the compound. The 50% effective concentration (EC50) was calculated by using the exponential form of the median effect equation where (Fa)=1/[1+(ED50/drug conc.)^m] (Johnson V A, Byington R T. Infectivity Assay. In Techniques in HIV Research. ed. Aldovini A, Walker B D. 71-76. New York: Stockton Press. 1990).
(A reporter such as luciferase makes a cellular process visible.)
Consider `Cc1nc(C)c([C@H](OC(C)(C)C)C(=O)O)c(N2CCC(C)(C)CC2)c1-c1ccc(OC(C)Cc2ccc(F)cc2)cc1` (single isomer, unassigned) [Example 21], for which the pEC50 was 7.85.
The value for `Cc1nc(C)c([C@H](OC(C)(C)C)C(=O)O)c(N2CCC(C)(C)CC2)c1-c1ccc(Oc2ccccc2)cc1` [Example 1, (S)-2-(tert-butoxy)-2-(4-(4,4-dimethylpiperidin-1-yl)-2,6-dimethyl-5-(4-phenoxyphenyl)pyridin-3-yl)acetic acid] was 7.43; that for `Cc1nc(C)c([C@H](OC(C)(C)C)C(=O)O)c(N2CCC(C)(C)CC2)c1-c1ccc(OCc2ccc(F)cc2)cc1` [Example 2, (S)-2-(tert-butoxy)-2-(4-(4,4-dimethylpiperidin-1-yl)-5-(4-((4-fluorobenzyl)oxy)phenyl)-2,6-dimethylpyridin-3-yl)acetic acid] was 7.92.
Regarding `Cc1nc(C)c([C@H](OC(C)(C)C)C(=O)O)c(N2CCC(C)(C)CC2)c1-c1ccc(OCc2ccccc2)nc1` [Example 3, (S)-2-(6′-(benzyloxy)-4-(4,4-dimethylpiperidin-1-yl)-2,6-dimethyl-[3,3′-bipyridin]-5-yl)-2-(tert-butoxy)acetic acid], the pEC50 is 7.70.
As to `Cc1nc(C)c([C@H](OC(C)(C)C)C(=O)O)c(N2CCC(C)(C)CC2)c1-c1ccc(OCc2ccccc2)c(F)c1` [Example 4, (S)-2-(5-(4-(benzyloxy)-3-fluorophenyl)-4-(4,4-dimethylpiperidin-1-yl)-2,6-dimethylpyridin-3-yl)-2-(tert-butoxy)acetic acid], the pEC50 was 7.92.
The compound `Cc1nc(C)c([C@H](OC(C)(C)C)C(=O)O)c(N2CCC(C)(C)CC2)c1-c1ccc(OCc2ccccc2)cc1` [Example 5, (S)-2-(5-(4-(benzyloxy)phenyl)-4-(4,4-dimethylpiperidin-1-yl)-2,6-dimethylpyridin-3-yl)-2-(tert-butoxy)acetic acid] had a negative logarithm of the EC50 (pEC50) of 7.96.
`COc1ccccc1COc1ccc(-c2c(C)nc(C)c([C@H](OC(C)(C)C)C(=O)O)c2N2CCC(C)(C)CC2)cc1` [Example 6, (S)-2-(tert-butoxy)-2-(4-(4,4-dimethylpiperidin-1-yl)-5-(4-((2-methoxybenzyl)oxy)phenyl)-2,6-dimethylpyridin-3-yl)acetic acid] showed a negative-log EC50 (pEC50) of 7.70.
Consider `Cc1nc(C)c([C@H](OC(C)(C)C)C(=O)O)c(N2CCC(C)(C)CC2)c1-c1ccc(OCc2cccc(F)c2)cc1` [Example 7, (S)-2-(tert-butoxy)-2-(4-(4,4-dimethylpiperidin-1-yl)-5-(4-((3-fluorobenzyl)oxy)phenyl)-2,6-dimethylpyridin-3-yl)acetic acid], for which the pEC50 was 8.05.
Consider `COc1ccc(COc2ccc(-c3c(C)nc(C)c([C@H](OC(C)(C)C)C(=O)O)c3N3CCC(C)(C)CC3)cc2)cc1` [Example 8, (S)-2-(tert-butoxy)-2-(4-(4,4-dimethylpiperidin-1-yl)-5-(4-((4-methoxybenzyl)oxy)phenyl)-2,6-dimethylpyridin-3-yl)acetic acid], for which the pEC50 is 7.96.
For `Cc1nc(C)c([C@H](OC(C)(C)C)C(=O)O)c(N2CCC(C)(C)CC2)c1-c1ccc(OCc2ccc(Cl)cc2)cc1` [Example 9, (S)-2-(tert-butoxy)-2-(5-(4-((4-chlorobenzyl)oxy)phenyl)-4-(4,4-dimethylpiperidin-1-yl)-2,6-dimethylpyridin-3-yl)acetic acid], the negative-log EC50 (pEC50) is 8.05.
The value for `CCOc1ccc(-c2c(C)nc(C)c([C@H](OC(C)(C)C)C(=O)O)c2N2CCC(C)(C)CC2)cc1` [Example 10, (S)-2-(tert-butoxy)-2-(4-(4,4-dimethylpiperidin-1-yl)-5-(4-ethoxyphenyl)-2,6-dimethylpyridin-3-yl)acetic acid] was 7.57.
In the case of `Cc1nc(C)c([C@H](OC(C)(C)C)C(=O)O)c(N2CCC(C)(C)CC2)c1-c1ccc(OCCc2ccc(F)cc2)cc1` [Example 11, (S)-2-(tert-butoxy)-2-(4-(4,4-dimethylpiperidin-1-yl)-5-(4-(4-fluorophenethoxy)phenyl)-2,6-dimethylpyridin-3-yl)acetic acid], the negative-log EC50 (pEC50) was 8.40.
With `Cc1cc(CCOc2ccc(-c3c(C)nc(C)c([C@H](OC(C)(C)C)C(=O)O)c3N3CCC(C)(C)CC3)cc2)ccc1F` [Example 12, (S)-2-(tert-butoxy)-2-(4-(4,4-dimethylpiperidin-1-yl)-5-(4-(4-fluoro-3-methylphenethoxy)phenyl)-2,6-dimethylpyridin-3-yl)acetic acid], the pEC50 was 8.30.
`Cc1nc(C)c([C@H](OC(C)(C)C)C(=O)O)c(N2CCC(C)(C)CC2)c1-c1ccc(OCCCc2ccc(F)cc2)cc1` [Example 13, (S)-2-(tert-butoxy)-2-(4-(4,4-dimethylpiperidin-1-yl)-5-(4-(3-(4-fluorophenyl)propoxy)phenyl)-2,6-dimethylpyridin-3-yl)acetic acid]: the pEC50 was 7.92.
In turn, `Cc1nc(C)c([C@H](OC(C)(C)C)C(=O)O)c(N2CCC(C)(C)CC2)c1-c1ccc(OCCC(C)(C)C)cc1` [Example 14, (S)-2-(tert-butoxy)-2-(5-(4-(3,3-dimethylbutoxy)phenyl)-4-(4,4-dimethylpiperidin-1-yl)-2,6-dimethylpyridin-3-yl)acetic acid] had a negative logarithm of the EC50 (pEC50) of 7.55.
Compound `COc1ccc(CCOc2ccc(-c3c(C)nc(C)c([C@H](OC(C)(C)C)C(=O)O)c3N3CCC(C)(C)CC3)cc2)cc1` [Example 15, (S)-2-(tert-butoxy)-2-(4-(4,4-dimethylpiperidin-1-yl)-5-(4-(4-methoxyphenethoxy)phenyl)-2,6-dimethylpyridin-3-yl)acetic acid] had a pEC50 of 8.40.
`Cc1nc(C)c([C@H](OC(C)(C)C)C(=O)O)c(N2CCC(C)(C)CC2)c1-c1ccc(O)cc1` [Example 16, (S)-2-(tert-Butoxy)-2-(4-(4,4-dimethylpiperidin-1-yl)-5-(4-hydroxyphenyl)-2,6-dimethylpyridin-3-yl)acetic acid]: the pEC50 is 6.76.
Turning to `Cc1nc(C)c([C@H](OC(C)(C)C)C(=O)O)c(N2CCC(C)(C)CC2)c1-c1ccc(OCCc2ccc(C(N)=O)cc2)cc1` [Example 17, (S)-2-(tert-Butoxy)-2-(5-(4-(4-carbamoylphenethoxy)phenyl)-4-(4,4-dimethylpiperidin-1-yl)-2,6-dimethylpyridin-3-yl)acetic acid], the pEC50 was 8.40.
The figure for `Cc1nc(C)c([C@H](OC(C)(C)C)C(=O)O)c(N2CCC(C)(C)CC2)c1-c1ccc(OCCc2ccc(C#N)cc2)cc1` [Example 18, (S)-2-(tert-Butoxy)-2-(5-(4-(4-cyanophenethoxy)phenyl)-4-(4,4-dimethylpiperidin-1-yl)-2,6-dimethylpyridin-3-yl)acetic acid] is 8.70; for `Cc1nc(C)c([C@H](OC(C)(C)C)C(=O)O)c(N2CCC(C)(C)CC2)c1-c1ccc(OCc2ccc(C(N)=O)cc2)cc1` [Example 19, (S)-2-(tert-Butoxy)-2-(5-(4-((4-carbamoylbenzyl)oxy)phenyl)-4-(4,4-dimethylpiperidin-1-yl)-2,6-dimethylpyridin-3-yl)acetic acid] it is 7.92.
In turn, `Cc1nc(C)c([C@H](OC(C)(C)C)C(=O)O)c(N2CCC(C)(C)CC2)c1-c1ccc(OCc2ccc(C#N)cc2)cc1` [Example 20, (S)-2-(tert-Butoxy)-2-(5-(4-((4-cyanobenzyl)oxy)phenyl)-4-(4,4-dimethylpiperidin-1-yl)-2,6-dimethylpyridin-3-yl)acetic acid] had a pEC50 of 8.52.
With `Cc1nc(C)c([C@H](OC(C)(C)C)C(=O)O)c(N2CCC(C)(C)CC2)c1-c1ccc(OC(C)Cc2ccc(F)cc2)cc1` (stereo partly drawn) [Example 22, (2S)-2-(tert-Butoxy)-2-(4-(4,4-dimethylpiperidin-1-yl)-5-(4-((1-(4-fluorophenyl)propan-2-yl)oxy)phenyl)-2,6-dimethylpyridin-3-yl)acetic acid], the pEC50 is 8.15.
Compound `Cc1nc(C)c([C@H](OC(C)(C)C)C(=O)O)c(N2CCC(C)(C)CC2)c1-c1ccc(OCCc2ccc(F)cc2F)cc1` [Example 23, (S)-2-(tert-butoxy)-2-(5-(4-(2,4-difluorophenethoxy)phenyl)-4-(4,4-dimethylpiperidin-1-yl)-2,6-dimethylpyridin-3-yl)acetic acid] had a negative-log EC50 (pEC50) of 8.30.
The figure for `Cc1nc(C)c([C@H](OC(C)(C)C)C(=O)O)c(N2CCC(C)(C)CC2)c1-c1ccc(OCCc2ccc(F)c(F)c2)cc1` [Example 24, (S)-2-(tert-butoxy)-2-(5-(4-(3,4-difluorophenethoxy)phenyl)-4-(4,4-dimethylpiperidin-1-yl)-2,6-dimethylpyridin-3-yl)acetic acid] is 8.52; for `Cc1nc(C)c([C@H](OC(C)(C)C)C(=O)O)c(N2CCC(C)(C)CC2)c1-c1ccc(OCCc2cc(F)ccc2F)cc1` [Example 25, (S)-2-(tert-butoxy)-2-(5-(4-(2,5-difluorophenethoxy)phenyl)-4-(4,4-dimethylpiperidin-1-yl)-2,6-dimethylpyridin-3-yl)acetic acid] it is 8.52.

As usually defined, the pEC50 is −log10 of the EC50, conventionally taken in molar units. A high value points to a small EC50.

The record behind these values is US9193720B2, “Pyridin-3-yl acetic acid derivatives as inhibitors of human immunodeficiency virus replication” (priority 2014, dated 2015).
